Test results taken from patent publication US8604217B2, “Compound, a process for its preparation, a pharmaceutical composition, use of a compound, a method for modulating or regulating serine/threonine kinases and a serine/threonine kinases modulating agent” (Selvita S.A., priority 2009, dated 2013).
Like-named read-outs stand apart in the source and are kept apart here.

Assays:
PIM-1 = PIM-1 (Homo sapiens (Human), UniProt P11309); assay: Luminometric kinase assay for PIM1 kinase (Kinase-Glo); assay type: biochemical; conditions: 1 μM ATP, 25 min at RT
Experimental: Kinase assay was performed using luminescent Kinase-Glo® (Promega) system. The Kinase-Glo® Luminescent Kinase Assay Platform provides a homogeneous, high-throughput screening method for measuring kinase activity by quantifying the amount of ATP remaining in solution following a kinase reaction. The luminescent signal is correlated with the amount of ATP present and is inversely correlated with the kinase activity. Appropriate amounts of both kinase and substrate were mixed in 96-well, white wall plate in the reaction buffer (8 mM MOPS/NaOH, pH7.0, 0.2 mM EDTA, 2 mM MgCl2). Tested compounds were diluted in DMSO and serial dilutions starting with 1 μM were added to the palates. Reaction was initiated by adding 1 μM of ATP solution and conducted for 25 min. at RT. Luminescent signal was detected by adding Kinase-Glo® reagent and measured using a microplate spectrophotometer (Synergy 2 multi-mode microplate reader (BioTek)). IC50 values were obtained by fitting sigmoidal dose-response curve (variable slope) using GraphPad Prism software.

[1] = tested on: human colorectal adenocarcinoma SW480 cells; assay: Growth inhibition test (MTS) on SW480 cells; assay type: cell-based; conditions: read-out: SW480 ED50
Experimental: (§1) Two thousand cells of human colorectal adenocarcinoma SW480 were inoculated into each well of a 96-well microplate (manufactured by Corning Corp.), and using DMEM/Ham's F121:1 medium (culture medium) containing 5% fetal calf serum (FCS). Next day, a dimethyl sulfoxide (DMSO) solution of each test compound prepared in a concentration of 10 mmol/L was further diluted with culture medium to the desired concentrations (0.1, 0.5, 1, 2.5, 5 and 10 micromol/L), and the diluted solution was added to each well. The individual wells were further cultured in 5% carbon dioxide at 37° C. for 72 hours. After completion of the culture, 10 μl MTS (3-(4,5-Dimethyl-2-thiazolyl)-5-(carboxymethoxyphenyl)-2-(4-sulfophenyl)-2H-tetrazolium, inner salt assay (CellTiter96® AQueous One Solution Cell Proliferation Assay, Promega) was added to each well, and culturing was performed in 5% carbon dioxide at 37° C. for 2 hours. Using a microplate spectrophotometer (Synergy 2 multi-mode microplate reader (BioTek)), the absorbance of each well was measured at 490 nm. The value for cells not incorporated with a test compound was designated as 100%. By comparing these values with the absorbance difference obtained at the well in which each test compound was added, the cell viability (% viability) after treatment with the test compound was calculated.

[2] = tested on: human hepatoma HepG2 cells; assay: Growth inhibition test (MTS) on HepG2 cells; assay type: cell-based; conditions: 72 hours, read-out: HepG2 ED50
Experimental: as §1, with “human hepatoma HepG2” for “human colorectal adenocarcinoma SW480”, “Corning Corp.)” for “Corning Corp.), and”, “using DMEM” for “using DMEM/Ham's F121:1”, “containing 10%” for “containing 5%”

[3] = tested on: human myelomonocytic, biphenotypic leukemia MV4-11 cells; assay: Growth inhibition test (MTS) on MV4-11 cells; assay type: cell-based; conditions: read-out: MV-4-11 ED50
Experimental: as §1, with “Ten thousand” for “Two thousand”, “human myelomonocytic, biphenotypic leukemia MV4-11” for “human colorectal adenocarcinoma SW480”, “Corning Corp.)” for “Corning Corp.), and”, “using Iscove's MDM” for “using DMEM/Ham's F121:1”, “containing 10%” for “containing 5%”

[4] = tested on: human acute lymphocytic leukemia E6.1 Jurkat cells; assay: Growth inhibition test (MTS) on E6.1 Jurkat cells; assay type: cell-based; conditions: 72 hours, read-out: Jurkat ED50
Experimental: as §1, with “Twenty thousand” for “Two thousand”, “human acute lumphocytic leukemia E6.1 Jurkat” for “human colorectal adenocarcinoma SW480”, “Corning Corp.)” for “Corning Corp.), and”, “using […]” for “using DMEM/Ham's F121:1”, “containing 10%” for “containing 5%”

[5] = tested on: human prostate adenocarcinoma PC3 cells; assay: Growth inhibition test (MTS) on PC3 cells; assay type: cell-based; conditions: for IC50: Homo sapiens, PC-3, 72 hours, read-out: PC-3 ED50
Source text: as §1, with “human prostate” for “human colorectal”, “adenocarcinoma PC3” for “adenocarcinoma SW480”, “using F12K (Ham's F12:[…] 1:1)” for “using DMEM/Ham's F121:1”, “containing 10%” for “containing 5%”

[6] = tested on: human breast adenocarcinoma MCF7 cells; assay: Growth inhibition test (MTS) on MCF7 cells; assay type: cell-based; conditions: read-out: MCF-7 ED50
Experimental: as §1, with “human breast” for “human colorectal”, “adenocarcinoma MCF7” for “adenocarcinoma SW480”, “using DMEM” for “using DMEM/Ham's F121:1”, “containing 10%” for “containing 5%”

Sequence of PIM-1 (P11309 whole entry): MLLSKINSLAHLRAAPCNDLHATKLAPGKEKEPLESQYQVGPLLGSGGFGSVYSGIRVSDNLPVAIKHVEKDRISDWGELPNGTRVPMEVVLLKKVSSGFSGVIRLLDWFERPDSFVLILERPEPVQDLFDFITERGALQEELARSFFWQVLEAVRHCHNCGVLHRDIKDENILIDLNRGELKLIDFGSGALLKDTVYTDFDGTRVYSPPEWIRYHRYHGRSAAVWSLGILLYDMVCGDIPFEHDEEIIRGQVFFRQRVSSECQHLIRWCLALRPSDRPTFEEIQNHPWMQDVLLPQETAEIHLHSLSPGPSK

Structure (SMILES) | IC50 (PIM-1) | IC50 [2] | IC50 ([3]; Homo sapiens, MV4-11, 72 hours) | IC50 [5] | further results
Brc1c(Br)c(Br)c2[nH]c(N3CCOCC3)nc2c1Br [Compound 19, 4,5,6,7-tetrabromo-2-morpholino-1H-benzo[d]imidazole] | 0.0294 µM |  | 6.83 µM |  | IC50 [4]: 4.63 µM
Brc1c(Br)c(Br)c2[nH]c(Nc3ccccc3)nc2c1Br [Compound 79, 4,5,6,7-tetrabromo-N-phenyl-1H-benzo[d]imidazol-2-amine] | 0.0682 µM | 6.52 µM |  |  | 
CN(C)CCCN(Cc1ccccc1)c1nc2c(Br)c(Br)c(Br)c(Br)c2[nH]1 [Compound 85, N-benzyl-4,5,6,7-tetrabromo-N-(3-(dimethylamino)propyl)-1H-benzo[d]imidazol-2-amine] | 0.0653 µM | 2.84 µM | 2.66 µM | 5.84 µM | IC50 ([6]; Homo sapiens, MCF7, 72 hours): 4.12 µM
Oc1ccc(CCNc2nc3c(Br)c(Br)c(Br)c(Br)c3[nH]2)cc1 [Compound 243, 4-(2-(4,5,6,7-tetrabromo-1H-benzo[d]imidazol-2-ylamino)ethyl)phenol] |  | 9 µM | 6.84 µM |  | IC50 [4]: 6.12 µM
Brc1c(Br)c(Br)c2[nH]c(N3CCCC(CN4CCN(c5ccccn5)CC4)C3)nc2c1Br (stereo not shown) [Compound 266, 4,5,6,7-tetrabromo-2-(3-((4-(pyridin-2-yl)piperazin-1-yl)methyl)piperidin-1-yl)-1H-benzo[d]imidazole] | 0.294 µM | 2.48 µM | 2.55 µM |  | 
Brc1c(Br)c(Br)c2[nH]c(N3CCN4CCC3CC4)nc2c1Br [Compound 350, 2-(4,5,6,7-tetrabromo-1H-benzo[d]imidazol-2-yl)-2,5-diaza-bicyclo[3.2.2]nonane] | 0.0327 µM | 5.55 µM | 5.52 µM | 8.48 µM | IC50 ([6]; Homo sapiens, MCF7, 72 hours): 6.55 µM
Brc1c(Br)c(Br)c2[nH]c(N3CCN(Cc4cn5ccccc5n4)CC3)nc2c1Br [Compound 387, 2-(4-((H-imidazo[1,2-a]pyridin-2-yl)methyl)piperazin-1-yl)-4,5,6,7-tetrabromo-1H-benzo[d]imidazole] |  |  |  |  | IC50 ([3]; 72 hours): 2.13 µM; IC50 ([6]; 72 hours): 9.25 µM; IC50 ([1]; 72 hours): 3.27 µM; PC-3 ED50 ([5]; 72 hours): 5.49 µM
N=C(N)N1CCN(c2nc3c(Br)c(Br)c(Br)c(Br)c3[nH]2)CC1 [Compound 392, 4-(4,5,6,7-tetrabromo-1H-benzo[d]imidazol-2-yl)piperazine-1-carboxamidine] | 0.00672 µM |  | 7.55 µM | 4.48 µM | IC50 ([1]; Homo sapiens, SW480, 72 hours): 1.85 µM

Second part, led by results:

IC50 (PIM-1) | IC50 [2] | IC50 ([3]; Homo sapiens, MV4-11, 72 hours) | IC50 [5] | Structure (SMILES) | further results
0.107 µM | 8.78 µM |  |  | Brc1c(Br)c(Br)c2[nH]c(NCCN3CCOCC3)nc2c1Br [Compound 16, 4,5,6,7-tetrabromo-N-(2-morpholinoethyl)-1H-benzo[d]imidazol-2-amine] | IC50 ([1]; 72 hours): 9.68 µM
0.0508 µM | 3.6 µM |  |  | Brc1c(Br)c(Br)c2[nH]c(NCCCN3CCCCC3)nc2c1Br [Compound 59, 4,5,6,7-tetrabromo-N-(3-(piperidin-1-yl)propyl)-1H-benzo[d]imidazol-2-amine] | 
0.00885 µM | 7.35 µM |  | 8.33 µM | NCCCCNc1nc2c(Br)c(Br)c(Br)c(Br)c2[nH]1 [Compound 61, N-(4-aminobutyl)-4,5,6,7-tetrabromo-1H-benzo[d]imidazol-2-amine] | 
0.0131 µM | 3.98 µM |  | 6.52 µM | NCC(O)CNc1nc2c(Br)c(Br)c(Br)c(Br)c2[nH]1 (stereo not shown) [Compound 90, 1-(4,5,6,7-tetrabromo-1H-benzo[d]imidazol-2-ylamino)-3-aminopropan-2-ol] | 
0.0944 µM | 7.12 µM | 3.43 µM | 8.3 µM | OCCCN1CCN(c2nc3c(Br)c(Br)c(Br)c(Br)c3[nH]2)CC1 [Compound 383, 3-(4-(4,5,6,7-tetrabromo-1H-benzo[d]imidazol-2-yl)piperazin-1-yl)propan-1-ol] | IC50 ([6]; Homo sapiens, MCF7, 72 hours): 8.32 µM; IC50 ([1]; Homo sapiens, SW480, 72 hours): 3.72 µM
